From patent US20250320213A1, “Nitrogen-Containing Heterocyclic Compounds” (Pfizer Inc., priority 2024, published 2025)
Like-named read-outs stand apart in the source and are kept apart here.

How the values were obtained:
STAT6 = molecular target: T1, STAT6 (Homo sapiens, UniProt P42226); assay: STAT6 Reporter Luciferase Assay (IL-13 stimulated HaCaT keratinocyte NanoLuc reporter cells); format: cell-based; details: read-out: Reporter EC50
T1 construct: stably transfected HaCaT keratinocyte cell line, which expresses NanoLuc luciferase reporter gene under the transcriptional control of the STAT6 responsive promoter; endogenous in cells; host or cells: HaCaT keratinocyte reporter cell line (stably transfected with a NanoLuc reporter)
T1 sequence (P42226 1-847): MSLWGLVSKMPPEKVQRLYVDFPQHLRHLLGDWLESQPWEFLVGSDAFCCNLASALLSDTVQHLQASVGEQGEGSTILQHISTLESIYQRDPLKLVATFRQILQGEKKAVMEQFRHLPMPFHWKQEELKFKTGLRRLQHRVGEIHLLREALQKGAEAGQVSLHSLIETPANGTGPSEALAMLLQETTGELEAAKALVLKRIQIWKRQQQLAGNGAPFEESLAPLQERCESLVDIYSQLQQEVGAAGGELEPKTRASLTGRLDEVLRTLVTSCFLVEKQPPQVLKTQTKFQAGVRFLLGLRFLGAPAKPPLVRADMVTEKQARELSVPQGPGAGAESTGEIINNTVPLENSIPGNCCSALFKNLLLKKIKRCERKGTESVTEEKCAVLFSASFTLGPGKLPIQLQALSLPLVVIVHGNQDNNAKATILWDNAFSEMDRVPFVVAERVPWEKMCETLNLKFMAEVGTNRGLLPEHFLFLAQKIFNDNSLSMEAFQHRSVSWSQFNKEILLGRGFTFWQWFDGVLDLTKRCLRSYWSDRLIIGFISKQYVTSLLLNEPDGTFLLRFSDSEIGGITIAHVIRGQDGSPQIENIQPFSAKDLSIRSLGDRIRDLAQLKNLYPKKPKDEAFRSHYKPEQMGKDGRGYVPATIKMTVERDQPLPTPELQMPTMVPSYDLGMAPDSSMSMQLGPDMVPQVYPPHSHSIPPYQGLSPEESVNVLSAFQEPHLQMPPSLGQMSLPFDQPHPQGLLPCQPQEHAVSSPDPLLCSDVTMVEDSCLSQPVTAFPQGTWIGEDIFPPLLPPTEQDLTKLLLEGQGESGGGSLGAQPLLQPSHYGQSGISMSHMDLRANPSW
How it was run: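 Cells were plated overnight, washed, exposed to compound for two hours, stimulated with IL-13 (0.12 nM final) for four hours at 37 °C, and then lysed with Nano-Glo substrate for 15 min before luminescence reading.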

[1] = system: CCL17 secretion in peripheral human whole blood; assay: Human Whole Blood (HWB) CCL17 TR-FRET Assay (IL-13 stimulated CCL17 secretion); format: cell-based
How it was run: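 IC50 comes from serum CCL17 measured by a TR-FRET sandwich assay (16 h at room temperature, 665/615 nm ratio). Beforehand, blood in sodium heparin was exposed to an 11-point, 3-fold compound series for 2 h at 37°C and then to 10 ng/mL IL-13 for 48 h.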

[2] = IL-13 stimulated HaCaT STAT6 NanoLuc reporter cells
[3] = Homo sapiens, 48 h, human whole blood, IL-13 stimulated
[4] = STAT6 NanoLuc luciferase reporter, IL-13 stimulated HaCaT keratinocyte cells
[5] = Homo sapiens, 48 h, inhibition of CCL17 secretion in human whole blood, 10 ng/mL IL13, 48 hours
[6] = Homo sapiens, 48 h, human whole blood, 10 ng/mL IL13, 48 hours
[7] = human whole blood, IL-13 stimulated, 48 hours

Row | Compound | EC50 (STAT6; [2]) | EC50 (STAT6; [4]) | IC50 [1, 5] | other results
1 | CNC(=O)c1ccc(CNC(=O)c2nn(C(C)C)c3c2CN(c2ncc(N4CCCC4=O)cn2)C[C@@H]3C)cc1 [Example 490, (S)-1-isopropyl-7-methyl-N-(4-(methylcarbamoyl)benzyl)-5-(5-(2-oxopyrrolidin-1-yl)pyrimidin-2-yl)-4,5,6,7-tetrahydro-1H-pyrazolo[4,3-c]pyridine-3-carboxamide] | 13 nM | – | – | IC50 [1, 3]: 50 nM
2 | Cc1csc(-c2ccc(CNC(=O)c3nn(C(C)C)c4c3CN(c3ccc(C(=O)N(C)C)cc3)C[C@@H]4C)cc2)n1 [Example 729, (S)-5-(4-(dimethylcarbamoyl)phenyl)-1-isopropyl-7-methyl-N-(4-(4-methylthiazol-2-yl)benzyl)-4,5,6,7-tetrahydro-1H-pyrazolo[4,3-c]pyridine-3-carboxamide] | 683 nM | – | – | IC50 ([1]; Homo sapiens, 48 h, human whole blood, IL-13 10 ng/mL): 4330 nM
3 | CCn1nc(C(=O)NCc2ccc(NC(=O)N(C)C)cc2)c2c1C[C@@H](C)N(c1ccc(C(=O)N(C)C)cn1)C2 (single isomer, unassigned) [Example 113] | – | 17 nM | 161 nM | –
4 | CC(C)n1nc(C(=O)NCc2ccc(NC(=O)N3CC4(CCN(C)CC4)C3)cc2)c2c1[C@@H](C)CN(c1ccc(-n3ccccc3=O)cn1)C2 [Example 634, (S)-1-isopropyl-7-methyl-N-(4-(7-methyl-2,7-diazaspiro[3.5]nonane-2-carboxamido)benzyl)-5-(2-oxo-2H-[1,3′-bipyridin]-6′-yl)-4,5,6,7-tetrahydro-1H-pyrazolo[4,3-c]pyridine-3-carboxamide] | 4 nM | – | – | IC50 [1, 6]: 29 nM
5 | CC(C)n1nc(C(=O)NCc2ccc(NC(=O)N3CCOCC3)cc2)c2c1CCN(c1ccc(C(=O)N(C)C)cn1)C2 [Example 173, N-(4-((5-(5-(dimethylcarbamoyl)pyridin-2-yl)-1-isopropyl-4,5,6,7-tetrahydro-1H-pyrazolo[4,3-c]pyridine-3-carboxamido)methyl)phenyl)morpholine-4-carboxamide] | – | 11 nM | 72 nM | –
6 | CC(C)n1nc(C(=O)NCc2ccc(NC(=O)N(C)C)cc2)c2c1CCN(c1ccc(N3C[C@H](CO)CC3=O)cn1)C2 [Example 75, (R)-N-(4-(3,3-dimethylureido)benzyl)-5-(5-(4-(hydroxymethyl)-2-oxopyrrolidin-1-yl)pyridin-2-yl)-1-isopropyl-4,5,6,7-tetrahydro-1H-pyrazolo[4,3-c]pyridine-3-carboxamide] | – | 2830 nM | 4560 nM | –
7 | CC(CC#N)n1nc(C(=O)NCc2ccc(NC(=O)N(C)C)cc2)c2c1CCN(c1ccc(C(=O)N(C)C)cn1)C2 (single isomer, unassigned) [Example 348, rel-(R or S)-1-(1-cyanopropan-2-yl)-5-(5-(dimethylcarbamoyl)pyridin-2-yl)-N-(4-(3,3-dimethylureido)benzyl)-4,5,6,7-tetrahydro-1H-pyrazolo[4,3-c]pyridine-3-carboxamide] | 43 nM | – | – | IC50 [1, 7]: 36 nM
8 | CNC(=O)c1ccc(CNC(=O)c2nn(C(C)C)c3c2CN(c2ccc(N4CCCC4=O)cn2)C[C@@H]3C)cc1 [Example 478, (S)-1-isopropyl-7-methyl-N-(4-(methylcarbamoyl)benzyl)-5-(5-(2-oxopyrrolidin-1-yl)pyridin-2-yl)-4,5,6,7-tetrahydro-1H-pyrazolo[4,3-c]pyridine-3-carboxamide] | 2 nM | – | – | IC50 [1, 3]: 17 nM
9 | CC(C)n1nc(C(=O)NCc2ccc(NC(=O)N(C)C)cc2)c2c1C[C@H](C)N(c1ccc(C(=O)N(C)C)cn1)C2 [Example 139, (S)-5-(5-(dimethylcarbamoyl)pyridin-2-yl)-N-(4-(3,3-dimethylureido)benzyl)-1-isopropyl-6-methyl-4,5,6,7-tetrahydro-1H-pyrazolo[4,3-c]pyridine-3-carboxamide] | – | 2 nM | 7 nM | –
10 | CC(C)n1nc(C(=O)NCc2ccc(NC(=O)N(C)C)cc2)c2c1CCN(c1ccc(C(=O)N3Cc4cccc(C(=O)N(C)C)c4C3)cn1)C2 [Example 431, 5-(5-(4-(dimethylcarbamoyl)isoindoline-2-carbonyl)pyridin-2-yl)-N-(4-(3,3-dimethylureido)benzyl)-1-isopropyl-4,5,6,7-tetrahydro-1H-pyrazolo[4,3-c]pyridine-3-carboxamide] | 12 nM | – | – | IC50 [1, 3]: 89 nM
11 | CC(=O)N1CCCc2cc(N3CCc4c(c(C(=O)NCc5ccc(NC(=O)N(C)C)cc5)nn4C(C)C)C3)ccc21 [Example 37, 5-(1-Acetyl-1,2,3,4-tetrahydroquinolin-6-yl)-N-(4-(3,3-dimethylureido)benzyl)-1-isopropyl-4,5,6,7-tetrahydro-1H-pyrazolo[4,3-c]pyridine-3-carboxamide] | – | 30 nM | 701 nM | –
12 | CC(C)n1nc(C(=O)NCc2ccc(C(N)=O)cc2)c2c1[C@@H](C)CN(c1ccc(C(=O)N(C)C)cn1)C2 [Example 342, (S)-N-(4-carbamoylbenzyl)-5-(5-(dimethylcarbamoyl)pyridin-2-yl)-1-isopropyl-7-methyl-4,5,6,7-tetrahydro-1H-pyrazolo[4,3-c]pyridine-3-carboxamide] | 3 nM | – | – | IC50 [1, 3]: 15 nM
13 | CN(C)C(=O)Nc1ccc(CNC(=O)c2nn(CC(F)(F)F)c3c2CN(c2ccc(C(=O)N(C)C)cn2)CC3)cc1 [Example 31, 5-(5-(dimethylcarbamoyl)pyridin-2-yl)-N-(4-(3,3-dimethylureido)benzyl)-1-(2,2,2-trifluoroethyl)-4,5,6,7-tetrahydro-1H-pyrazolo[4,3-c]pyridine-3-carboxamide] | – | 7 nM | 85 nM | –
14 | CCn1nc(C(=O)NCc2ccc(NC(=O)N(C)C)cc2)c2c1[C@@H](C)CN(c1ncc(C(=O)N(C)C)cn1)C2 [Example 125, (S)-5-(5-(Dimethylcarbamoyl)pyrimidin-2-yl)-N-(4-(3,3-dimethylureido)benzyl)-1-ethyl-7-methyl-4,5,6,7-tetrahydro-1H-pyrazolo[4,3-c]pyridine-3-carboxamide] | – | 1 nM | 4 nM | –
15 | CC(C)n1nc(C(=O)NCc2ccc(NC(=O)N(C)C)cc2)c2c1CCN(c1ccc(C3CCCCO3)cn1)C2 (single isomer, unassigned) [Example 393, rel-(R or S)-N-(4-(3,3-dimethylureido)benzyl)-1-isopropyl-5-(5-(tetrahydro-2H-pyran-2-yl)pyridin-2-yl)-4,5,6,7-tetrahydro-1H-pyrazolo[4,3-c]pyridine-3-carboxamide] | > 8750 nM | – | – | IC50 [1, 3]: > 30000 nM
16 | CCn1nc(C(=O)NCc2ccc(NC(=O)N(C)C)cc2)c2c1[C@H]1CC[C@H]1N(c1ccc(C(=O)N(C)C)cn1)C2 (single isomer, unassigned) [Example 231] | 2 nM | – | – | IC50 [1, 7]: 23 nM
17 | CCc1nc(C(=O)NCc2ccc(NC(=O)N(C)C)cc2)c2n1C(C)CN(c1ccc(C(=O)N(C)C)cn1)C2 (single isomer, unassigned) [Example 232, rel-(R or S)-7-(5-(dimethylcarbamoyl)pyridin-2-yl)-N-(4-(3,3-dimethylureido)benzyl)-3-ethyl-5-methyl-5,6,7,8-tetrahydroimidazo[1,5-a]pyrazine-1-carboxamide] | 2 nM | – | – | IC50 [1, 7]: 5 nM
18 | CN(C)C(=O)Nc1ccc(CNC(=O)c2nn(CC3CC3)c3c2CN(c2ccc(C(=O)N(C)C)cn2)CC3)cc1 [Example 89, 1-(cyclopropylmethyl)-5-(5-(dimethylcarbamoyl)pyridin-2-yl)-N-(4-(3,3-dimethylureido)benzyl)-4,5,6,7-tetrahydro-1H-pyrazolo[4,3-c]pyridine-3-carboxamide] | – | 12 nM | 149 nM | –
19 | CC(C)n1nc(C(=O)NCc2ccc(-c3ncc[nH]3)cc2)c2c1C[C@H](C)N(c1ccc(C(=O)N(C)C)cn1)C2 [Example 536, (S)-N-(4-(1H-imidazol-2-yl)benzyl)-5-(5-(dimethylcarbamoyl)pyridin-2-yl)-1-isopropyl-6-methyl-4,5,6,7-tetrahydro-1H-pyrazolo[4,3-c]pyridine-3-carboxamide] | 4 nM | – | – | IC50 [1, 6]: 31 nM
